“And” between values parts separate entries of the source, which are not always exact repeats. Identical values can stand only once.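 The compound was tested at five concentrations on cells cultured in 96-well plates, with a 48-hour exposure period. Abbreviation: GI50, concentration required for 50% inhibition of growth. TGI: total growth inhibition.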
Tests used:
Experiment in all cases: NCI anticancer screen, dose series, 48 h
MDA-MB-231 breast = tested on: MDA-MB-231 breast
BT-549 breast = tested on: BT-549 breast
NCI/ADR-RES ovarian = tested on: NCI/ADR-RES ovarian
XF 498 CNS = tested on: XF 498 CNS
KM20L2 colon = tested on: KM20L2 colon
M19-MEL melanoma = tested on: M19-MEL melanoma
DMS 273 small cell lung = tested on: DMS 273 small cell lung
MDA-N = tested on: MDA-N

COc1ccc2c(c1)/C(=C\c1c(-c3ccccc3)nc3sccn13)C(=O)N2
GI50 (MDA-MB-231 breast): 6.92 µM
TGI (MDA-MB-231 breast): 23.5 µM
GI50 (BT-549 breast): 3 µM
TGI (BT-549 breast): 13.9 µM
GI50 (NCI/ADR-RES ovarian): 1.09 µM
TGI (NCI/ADR-RES ovarian): 3.27 µM

OCC1CC2C=CCC(C2)C1 (stereo not drawn)
TGI (XF 498 CNS): > 100 µM
TGI (KM20L2 colon): > 100 µM
TGI (M19-MEL melanoma): > 100 µM
TGI (DMS 273 small cell lung): > 100 µM

O=C1CC=C2C3CC4N(CCC45c4ccccc4N1C25)C/C3=C\CO (stereo not drawn)
TGI (MDA-MB-231 breast): > 100 µM
TGI (MDA-N): > 100 µM
TGI (BT-549 breast): > 100 µM
TGI (NCI/ADR-RES ovarian): > 100 µM

C[N+]1(CCNP(=S)(NCC[N+]2(C)Cc3c(ccc4c3OCO4)C3C2c2cc4c(cc2C[C@@H]3O)OCO4)NCC[N+]2(C)Cc3c(ccc4c3OCO4)C3C2c2cc4c(cc2C[C@@H]3O)OCO4)Cc2c(ccc3c2OCO3)C2C1c1cc3c(cc1C[C@H]2O)OCO3 (stereo partly drawn)
GI50 (XF 498 CNS): 0.846 µM
GI50 (KM20L2 colon): 2.13 µM
GI50 (M19-MEL melanoma): 2.04 µM
TGI (DMS 273 small cell lung): < 0.00191 µM

COC(=O)[C@@H](C)C[C@H](Cc1ccccc1)NC(=O)c1csc([C@@H](C[C@H](C(C)C)N(C)C(=O)[C@@H](NC(=O)[C@H]2CCCCN2C)c2ccc(F)cc2)OC(C)=O)n1
TGI (BT-549 breast): 0.0853 µM and 0.661 µM
GI50 (NCI/ADR-RES ovarian): 1.81 µM and 3.8 µM
TGI (NCI/ADR-RES ovarian): 25 µM and > 100 µM

O=c1cccccc1O
TGI (MDA-MB-231 breast): > 100 µM
TGI (MDA-N): > 100 µM
TGI (BT-549 breast): > 100 µM
TGI (NCI/ADR-RES ovarian): > 100 µM

CO[C@H]1/C=C/O[C@@]2(C)Oc3c(C)c(O)c4c(O)c(c(/C=N/N5C(C)CN(Cc6ccc(C#N)cc6)CC5C)c(O)c4c3C2=O)NC(=O)/C(C)=C\C=C\[C@H](C)[C@H](O)[C@@H](C)[C@@H](O)[C@@H](C)[C@H](OC(C)=O)[C@@H]1C (stereo partly drawn)
GI50 (MDA-MB-231 breast): 7.49 µM
TGI (MDA-MB-231 breast): 14.9 µM
GI50 (BT-549 breast): 8.85 µM
TGI (BT-549 breast): 23.5 µM
GI50 (NCI/ADR-RES ovarian): 11.7 µM
TGI (NCI/ADR-RES ovarian): 46 µM

CCCC(=O)Oc1ccc(/C=N/NC(N)=S)nc1
TGI (KM20L2 colon): > 100 µM
TGI (M19-MEL melanoma): > 100 µM
TGI (DMS 273 small cell lung): > 100 µM

CC[C@H](C)[C@H](NC(=O)c1ncccn1)C(=O)N(C)[C@H](C[C@@H](OC(C)=O)c1nc(C(=O)N[C@@H](Cc2ccccc2)C[C@H](C)C(=O)OC)cs1)C(C)C
GI50 (MDA-MB-231 breast): 1.4 µM
TGI (MDA-MB-231 breast): 10.9 µM
GI50 (BT-549 breast): 1.47 µM
TGI (BT-549 breast): 11.7 µM
GI50 (NCI/ADR-RES ovarian): 11.7 µM
TGI (NCI/ADR-RES ovarian): > 25 µM

Cn1cc(-c2ncnc3ccc(-c4cnc(Cl)c(NS(C)(=O)=O)c4)cc23)c2ccccc21
GI50 (MDA-MB-231 breast): 1.84 µM
TGI (MDA-MB-231 breast): 26.4 µM
GI50 (BT-549 breast): 0.566 µM
TGI (BT-549 breast): 7.68 µM
GI50 (NCI/ADR-RES ovarian): 1.24 µM
TGI (NCI/ADR-RES ovarian): 30.3 µM

COc1cccc(C2SC(C)C(=O)N2NC(=O)C(O)c2ccccc2)c1 (stereo not drawn)
GI50 (MDA-MB-231 breast): > 100 µM
TGI (MDA-MB-231 breast): > 100 µM
GI50 (BT-549 breast): > 100 µM
TGI (BT-549 breast): > 100 µM

Cc1ccccc1SC(/C=C/NNC1=NC(c2ccccc2)C(c2ccccc2)=NN1)c1ccccc1 (stereo not drawn)
TGI (XF 498 CNS): 60.4 µM
TGI (KM20L2 colon): > 100 µM
TGI (M19-MEL melanoma): > 100 µM
TGI (DMS 273 small cell lung): > 100 µM

C[C@]12CC[C@@H]3c4ccc(O)cc4CC[C@H]3[C@@H]1CC(Cc1ccccc1)(Cc1ccccc1)C2=O
GI50 (MDA-MB-231 breast): 14.1 µM
TGI (MDA-MB-231 breast): 28.5 µM
GI50 (BT-549 breast): 18.8 µM
TGI (BT-549 breast): 38.7 µM
GI50 (NCI/ADR-RES ovarian): 16.5 µM
TGI (NCI/ADR-RES ovarian): 30.7 µM

CCCCSC1CCSc2c1ccc1ccccc21 (stereo not drawn)
TGI (XF 498 CNS): 63.9 µM
TGI (KM20L2 colon): > 100 µM
TGI (M19-MEL melanoma): > 100 µM

N#Cc1c(N)c(C(=O)c2ccc3c(c2)OCCO3)n2c1CCCC2
GI50 (MDA-MB-231 breast): 6.47 µM
TGI (MDA-MB-231 breast): > 100 µM
GI50 (BT-549 breast): 4.8 µM
TGI (BT-549 breast): > 100 µM
GI50 (NCI/ADR-RES ovarian): 1.12 µM
TGI (NCI/ADR-RES ovarian): > 52.5 µM

O=C(N/N=C/c1ccc([N+](=O)[O-])cc1)c1ccccc1Nc1ccnc(C(F)(F)F)c1
GI50 (MDA-MB-231 breast): 21.7 µM
TGI (MDA-MB-231 breast): 77.1 µM
GI50 (NCI/ADR-RES ovarian): 16.8 µM
TGI (NCI/ADR-RES ovarian): 58.7 µM

Cn1cnc(SC2=CC(=O)C=C3S[C@H]4C[C@@]23c2c(c(O)c3c5c2=NCCC=5C=N3)N4)c1CC(N)C(=O)O (stereo partly drawn)
GI50 (XF 498 CNS): 17.6 µM
TGI (XF 498 CNS): 31.4 µM
GI50 (MDA-MB-231 breast): 6.6 µM
TGI (MDA-MB-231 breast): 20.3 µM
GI50 (KM20L2 colon): 2.48 µM
TGI (KM20L2 colon): 11.6 µM
TGI (M19-MEL melanoma): 3.89 µM
GI50 (MDA-N): 2 µM
TGI (MDA-N): 3.63 µM
GI50 (DMS 273 small cell lung): 7.33 µM
TGI (DMS 273 small cell lung): 20.3 µM
GI50 (NCI/ADR-RES ovarian): 23.7 µM
TGI (NCI/ADR-RES ovarian): 56.7 µM

[Mn+3].[O-][Cl+3]([O-])([O-])O.[O-]c1ccccc1C=NCCN1CC1.[O-]c1ccccc1C=NCCN1CC1
GI50 (MDA-MB-231 breast): 20.9 µM
TGI (MDA-MB-231 breast): > 100 µM
GI50 (BT-549 breast): 19.4 µM
TGI (BT-549 breast): 50.8 µM
GI50 (NCI/ADR-RES ovarian): 19.3 µM
TGI (NCI/ADR-RES ovarian): 49.8 µM

C/C(=N\N)C(CN1CCOCC1)C(c1ccccc1)c1c(O)c2ccccc2oc1=O (stereo not drawn)
TGI (MDA-MB-231 breast): > 100 µM
TGI (KM20L2 colon): > 100 µM
TGI (M19-MEL melanoma): > 100 µM
TGI (MDA-N): > 100 µM
TGI (BT-549 breast): > 100 µM
TGI (DMS 273 small cell lung): > 100 µM
TGI (NCI/ADR-RES ovarian): > 100 µM

Clc1ccc(-c2nnc(-c3nn(-c4ccccc4)c4nc5ccccc5nc34)o2)cc1
TGI (XF 498 CNS): 64.6 µM
TGI (KM20L2 colon): > 100 µM
TGI (M19-MEL melanoma): > 100 µM
TGI (DMS 273 small cell lung): > 100 µM

COc1cc(/C=C2\C[C@H]3[C@@H]4CC=C5C[C@@H](O)CC[C@]5(C)[C@H]4CC[C@]3(C)[C@H]2O)ccc1OCCN1CCCCC1
GI50 (MDA-MB-231 breast): 0.605 µM
TGI (MDA-MB-231 breast): 1.39 µM
GI50 (BT-549 breast): 1.18 µM
TGI (BT-549 breast): 2.49 µM
GI50 (NCI/ADR-RES ovarian): 1.46 µM
TGI (NCI/ADR-RES ovarian): 4.66 µM

CN1CCN(c2ccncc2S(=O)(=O)N2CCN(C)CC2)CC1
TGI (MDA-MB-231 breast): > 100 µM
TGI (MDA-N): > 100 µM
TGI (BT-549 breast): > 100 µM
TGI (NCI/ADR-RES ovarian): > 100 µM

C[C@]1(c2nc3c(C(N)=O)cccc3[nH]2)CCCN1
GI50 (MDA-MB-231 breast): 98.3 µM and > 100 µM
TGI (MDA-MB-231 breast): > 100 µM
GI50 (BT-549 breast): > 100 µM
TGI (BT-549 breast): > 100 µM
GI50 (NCI/ADR-RES ovarian): > 100 µM
TGI (NCI/ADR-RES ovarian): > 100 µM

CCOc1ccc(Nc2ccnc3cc(Cl)ccc23)cc1
GI50 (MDA-MB-231 breast): > 100 µM
TGI (MDA-MB-231 breast): > 100 µM
GI50 (BT-549 breast): > 100 µM
TGI (BT-549 breast): > 100 µM
GI50 (NCI/ADR-RES ovarian): > 100 µM
TGI (NCI/ADR-RES ovarian): > 100 µM

Nc1ccc(C(=O)CC2(O)C(=O)Nc3ccccc32)cc1 (stereo not drawn)
TGI (XF 498 CNS): > 100 µM
TGI (KM20L2 colon): > 100 µM
TGI (M19-MEL melanoma): > 100 µM
TGI (DMS 273 small cell lung): > 100 µM

NC(CCl)=NCC12CC3CC(CC(C3)C1)C2
GI50 (MDA-MB-231 breast): 1.75 µM
TGI (MDA-MB-231 breast): 11.3 µM
GI50 (BT-549 breast): 2.43 µM
TGI (BT-549 breast): 14.2 µM
GI50 (NCI/ADR-RES ovarian): 0.625 µM
TGI (NCI/ADR-RES ovarian): 14.4 µM

Cn1nc(-c2ccccc2)c2c(/C=C/c3ccc(F)cc3)onc2c1=O
TGI (XF 498 CNS): > 100 µM
TGI (KM20L2 colon): > 100 µM
TGI (M19-MEL melanoma): > 100 µM
TGI (DMS 273 small cell lung): > 100 µM

COc1cccc(/C=C2\N=C(Cl)OC2=O)c1O
TGI (XF 498 CNS): > 100 µM
TGI (KM20L2 colon): > 100 µM
TGI (DMS 273 small cell lung): > 100 µM

CC1(C)CC[C@]2(C(=O)NCCNCCN)CC[C@]3(C)C(=CC[C@@H]4[C@@]5(C)CCC(=O)C(C)(C)[C@@H]5CC[C@]43C)[C@@H]2C1
GI50 (MDA-MB-231 breast): 1.82 µM
TGI (MDA-MB-231 breast): 3.35 µM
GI50 (BT-549 breast): 1.56 µM
TGI (BT-549 breast): 3.26 µM
GI50 (NCI/ADR-RES ovarian): 7.81 µM
TGI (NCI/ADR-RES ovarian): 22.7 µM

— PubChem BioAssay (NCI)
